Results reported in patent publication US9234168B2, “Compositions containing amino acids, phosphate and manganese and their uses” (The Henry M. Jackson Foundation for the Advancement of …, priority 2010, dated 2016).

Legend:
E. coli = assay type: cell-based, Escherichia coli; conditions: 3 kGy; TGY supplemented with 1 μM Mn^2+, 13 mM phosphate, 3 mM uridine or 384 mM (3%) DMSO individually
Method: FIG. 3 depicts the survival curves of E. coli exposed to acute IR and grown in the presence of various supplements: TGY, standard peptide-rich growth medium; DMSO, dimethyl sulfoxide; UMnP, 3 mM uridine/1 μM Mn^2+/13 mM PiB (phosphate buffer).
Individually and in combination, the radioprotective properties of Mn^2+, phosphate, uridine and DMSO were determined using E. coli grown in TGY medium; TGY is a peptide-rich medium based on yeast extract, and contains approximately 200 nM Mn.

bacterial cell culture = test: Radioprotection of a bacterial cell culture; assay type: cell-based; conditions: agent alone
Excerpt: (§1) Applicants have shown that adenosine alone and Mn(II) alone are radioprotective […] for a mammalian cell line and for a bacterial cell culture.

mammalian cell line = test: Radioprotection of a mammalian cell line; assay type: cell-based; conditions: agent alone
Excerpt: as §1

Molecule	increase of the resistance of E. coli (E. coli)	radioprotection of a bacterial cell culture (bacterial cell culture)	radioprotection of a mammalian cell line (mammalian cell line)
C[S+](C)[O-] [DMSO, dimethyl sulfoxide]	50 times		
[Mn+2] [Mn^2+]	did not increase the resistance	radioprotective	radioprotective
Nc1ncnc2c1ncn2[C@@H]1O[C@H](CO)[C@@H](O)[C@H]1O [adenosine]		radioprotective	radioprotective
O=c1ccn([C@@H]2O[C@H](CO)[C@@H](O)[C@H]2O)c(=O)[nH]1 [uridine]	50 times		
phosphate	800 times		
